The METLIN SMRT retention time set (Domingo-Almenara et al. 2019)

Assay: gradient 5% acetonitrile 3 min, to 50% in 2 min, to 85% in 15 min, held 3 min, 100 µL/min
Conditions: column: Zorbax Extend-C18 2.1 x 50 mm; eluents: water / acetonitrile, 0.1% formic acid
Outline: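 Values are retention times taken from adduct peaks that software picked and an analyst inspected. The pure standards were run as mixtures of ~100 molecules on HPLC linked to a quadrupole time-of-flight mass spectrometer, in positive and negative ionization mode. A Zorbax Extend-C18 column (2.1 × 50 mm, 1.8 μm) was used at 100 μL/min with water and acetonitrile, each including 0.1% formic acid.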

SMILES	RP-LC retention time
CCc1noc(NC(C)=O)c1-c1ccc(C)c(S(=O)(=O)N(CC)CC)c1	836 s
CC(=O)Nc1ccc(CCc2nc3ccc(C(=O)NCC4CCCO4)cc3[nH]2)cc1 (centres undefined)	562 s
CC1CCN(c2ncc3c(n2)CCC(C(=O)NCc2ccc(N4CCOCC4)cc2)C3)CC1 (centres undefined)	715 s
O=C(NCCN1CCN(C(=O)c2cccs2)CC1)c1ccc2nsnc2c1	550 s
O=C(Nc1nccnc1C(=O)NCc1cccnc1)c1ccccc1	584 s
Cn1c(=O)c2nc(S(=O)(=O)CCC(=O)Nc3ccc(F)cc3F)n(C)c2n(C)c1=O	737 s
O=C(Nc1ncc(SCCN2CCCC2)s1)[C@]1(c2ccc(S(=O)(=O)C3CC3)cc2)C[C@H]1C1CCCCC1	854 s
O=C(Nc1ccc(OCc2nnc(-c3ccccc3)o2)cc1)C1COc2ccccc2O1 (centres undefined)	984 s
COc1ccc(N2C=C(C#N)S(=O)(=O)c3c(F)cccc32)cc1OC	844 s
Cc1cccc(CC(=O)NCCCN2CCN(c3ccccc3)CC2)c1	601 s
CCc1ccc(NC(=O)c2c(C)oc3c2C2=NC(CC)CN2C=N3)cc1 (centres undefined)	712 s
Cc1ccc(S(=O)(=O)N2CCOCC2)cc1-c1nnc(-c2ccc(F)cc2)o1	958 s
Cc1ccc(NC(=O)C2CCc3nc(N4CCOCC4)ncc3C2)c(F)c1 (centres undefined)	731 s
O=C(CCc1c(-c2ccccc2)nc2ccccn12)NC1CC1	561 s
CCCC(=O)NC1(c2nc(C(C)C)no2)CCCCC1	850 s
COCCC(=O)Nc1ccc2c(c1)Sc1ncccc1C(=O)N2C	612 s
CCc1ccc(NC(=O)N2CCc3[nH]cnc3C2c2ccncc2)cc1 (centres undefined)	581 s
CC(=O)Nc1ccc(S(=O)(=O)NCC2(c3cccs3)CCOCC2)c(C)c1	696 s
CCC(=O)N1CCc2ccccc2C1C(=O)NCc1ccc2c(c1)OCO2 (centres undefined)	761 s
Cn1cc(CN2CCC(C(=O)NCCC3=CCCCC3)CC2)c2cc(Cl)ccc21	778 s
CCn1cc(CCN2CCN(S(=O)(=O)c3ccc(C)cc3)CC2)c2cccnc21	652 s
Cc1cc(C(=O)NCCCN2CCCC2=O)c2c(C)nn(-c3ccccc3)c2n1	732 s
CCc1noc(NC(C)=O)c1-c1ccc(OC)c(S(=O)(=O)Nc2cccc(C(F)(F)F)c2)c1	862 s

SMILES	RP-LC retention time
COc1ccccc1-c1nnc(-c2ccc(OC)c(S(=O)(=O)N3CCCCC3)c2)o1	937 s
CCOc1ccc(-c2csc(Cc3nc(-c4ccc(OCC)cc4)no3)n2)cc1	1300 s
CCCC(=O)N1CCN(c2nc3ccccc3n(CC(C)C)c2=O)CC1	1000 s
CCOC(=O)c1cc(S(=O)(=O)N2CCCC2C(=O)Nc2ccc3c(c2)OCCO3)cn1C (centres undefined)	869 s
CCN(CC)C(=O)c1ccc2c(c1)N(CC(=O)NCc1ccco1)C(=O)CO2	652 s
Cc1[nH]nc(-c2c(C)sc(C)c2S(=O)(=O)Nc2ccc(Cl)cc2)c1C	1060 s
Cc1ncoc1C(=O)N1CCC(c2noc(-c3ccncc3)n2)C1 (centres undefined)	642 s
CC(C)c1ccc(C(O)Cn2ccn3nc(-c4ccc(F)cc4)cc3c2=O)cc1 (centres undefined)	1110 s
O=C(c1cccs1)N1CCN(c2ccc(-c3noc(C4CC4)n3)cc2)CC1	949 s
CSc1nc(Nc2cccc(Cl)c2)c(C#N)c(-c2ccccc2)n1	1280 s
COc1ccc(-n2nnc(-c3nc(C)c(C(=O)NCc4ccco4)s3)c2C)cc1	879 s
CC(C)CC(=O)Nc1ccc(-n2cnc(C(=O)NC3CCCCCC3)c2)nc1	865 s
CCN1c2cc(C(=O)Nc3ccc4c(c3)OCCO4)ccc2C(=O)N2CCCCC21 (centres undefined)	821 s
CCOC(=O)C1CCN(S(=O)(=O)c2cc3c4c(c2)CCC(=O)N4CCC3)CC1	769 s
COc1ccc(-c2nsc(SCC(=O)N3CCCc4ccccc43)n2)cc1	1110 s
COC(=O)c1cnc2nc(C)ccc2c1Nc1ccc(S(N)(=O)=O)cc1	586 s
CC(=O)N1CCCC1c1nc2ccccc2n1CC(=O)N1CCCCC1 (centres undefined)	594 s
COc1ccc(CCc2nc3cc(-c4c(C)noc4C)ccc3n2C[C@H](C)N2CCOCC2)cc1Cl	742 s
COc1ccc(C)cc1NC(=O)N1CCCC1c1c(C)noc1C (centres undefined)	840 s
Cc1cc(Cl)ccc1S(=O)(=O)N1CCCC1c1nc(-c2cccc(F)c2)no1 (centres undefined)	1220 s
Cc1ccc(-n2c(=O)c3c(cc(C)n3C)n(CC(=O)Nc3ccc(Cl)cc3)c2=O)cc1	910 s
CN1c2cc(F)ccc2C(=O)NC12CCN(C(=O)NCc1ccccc1)CC2	724 s
COCCNS(=O)(=O)c1ccc(Cl)c(-c2nnc(-c3ccccc3)o2)c1	870 s

SMILES	RP-LC retention time
COc1ccccc1CNC(=O)C1CC(=O)N(c2n[nH]c3cccc(F)c23)C1 (centres undefined)	711 s
COc1cc(OC)cc(-c2nnc(Cc3nc(-c4ccccc4C)no3)o2)c1	1060 s
CCCN1CCN(CCCNC(=O)c2noc3c2CCCCC3)CC1	594 s
Cc1ccc(-c2cc3n(n2)CCCN(C(=O)c2cc(CN4CCOCC4)on2)C3)o1	617 s
Cc1csc(-c2cc(S(=O)(=O)N3CCCCCC3)c(C)n2C)n1	1100 s
N#Cc1cc2c(nc1SCC(=O)N1CCOCC1)CCCCC2	891 s
CCOc1cccc(CN2C[C@@H]3C(=O)N(Cc4ccc5c(c4)OCO5)C(=O)[C@@H]3C2)c1	770 s
CCOC(=O)Cn1c(=O)c2c(nc3n2CC(C)CN3c2ccc(Br)cc2)n(C)c1=O (centres undefined)	1010 s
CCOC(=O)N1CCN(C(=O)CSc2ccc(C)cc2)CC1	765 s
CCn1ccc2c(cc(C(=O)Nc3cccc(F)c3)n2C)c1=O	768 s
CCOC(=O)c1sc(NC(=O)CSc2nccn2C)nc1-c1ccccc1	678 s
CCOc1ccc(CNc2ccc3[nH]c(=O)[nH]c3c2)cc1	605 s
COC(=O)c1c(C)[nH]c(C(=O)N2CCC(CC(=O)NCCCc3ccccc3)CC2)c1C	867 s
CCCCN(C)c1nc(-c2ccc(C)cc2)nc2ccccc12	819 s
CCN1CCN(C(=O)C2Cc3cc(S(=O)(=O)N4CCCCC4)ccc3N2C(C)=O)CC1 (centres undefined)	601 s
Cc1ccc(Sc2nccnc2N2CCCC(C(=O)NCCCc3ccccc3)C2)cc1 (centres undefined)	1210 s
O=C(Nc1cc(Cl)cc(Cl)c1)N1CC(Cc2nc(-c3cnccn3)no2)C1	838 s
COc1ccc(-c2nc(CNC(=O)C3CCOC3)no2)cc1 (centres undefined)	677 s
C=CCn1c(=O)c2ccccc2n(Cc2nc(-c3cccc(Cl)c3)no2)c1=O	1110 s
O=C(/C=C/c1ccccc1Cl)c1ccc(O)cc1	944 s
COc1cccc(-c2nc(Cc3nc(-c4ccccc4)oc3C)no2)c1	1100 s
O=C1CC(C(F)(F)F)c2c(c(C(=O)O)cn2-c2cccc(Cl)c2)N1 (centres undefined)	786 s
CCOc1ccc(C(=O)Nc2nc(-c3ccccc3)cs2)cc1Cl	1260 s

SMILES	RP-LC retention time
CCOc1ccc(CNC(=O)C2CCCN(S(=O)(=O)c3ccc4c(ccn4CC)c3)C2)cc1 (centres undefined)	1040 s
CCOc1cc(C(=O)Nc2c(-c3ccccc3)nc3cc(C)ccn23)cc(OCC)c1OCC	775 s
Cc1ccc(CNC(=O)C2(C)Cn3nc(C(=O)NCCCN4CCCCC4)cc3C(=O)N2C)cc1 (centres undefined)	598 s
Cc1nc(-c2cc(S(=O)(=O)N3CCN(c4cccc(Cl)c4)CC3)c(C)s2)cs1	1270 s
O=C(c1ccc(Cl)s1)N1CCC(Oc2nc3c(F)cc(F)cc3s2)CC1	1140 s
O=C(NCC1CCCO1)C1COC2(CCN(C(=O)C3CC3)CC2)N1C(=O)c1ccccc1 (centres undefined)	608 s
CCn1c(=O)c(C)nc2cc(-c3noc(-c4sccc4C)n3)ccc21	1080 s
CC(NC(=O)c1cc2n(n1)CC(C)(C(=O)NC1CCCCC1)N(C)C2=O)c1ccccc1 (centres undefined)	800 s
CCOc1ccc(NC(=O)c2c(O)c3cccnc3n(-c3ccc(F)cc3)c2=O)cc1	1280 s
CN(CCOC(=O)c1cccs1)Cc1ccccc1	623 s
Cc1cc(F)ccc1NC(=O)c1cnc2c(c1)c(=O)n(C)c(=O)n2-c1ccccc1	854 s
COc1ccc(C(=O)N2CCC3(C2)C(=O)N(C)c2ccccc23)cc1 (centres undefined)	743 s
O=c1c2nc(-c3ccc(F)cc3F)cn2ccn1-c1ccc2c(c1)CCC2	1030 s
CCOc1cccc(-c2noc(Cn3c(=O)n(CCCOC)c(=O)c4ccccc43)n2)c1	1040 s
O=C(c1nccc2ccccc12)N1CCC(OCC2CC2)C1 (centres undefined)	722 s
CC(c1ccccc1)c1nc(-c2ccc3c(c2)nnn3CCN2CCOCC2)no1 (centres undefined)	714 s
O=C(NCCn1ncccc1=O)c1ccc(OCc2nc(-c3ccco3)cs2)cc1	690 s
O=C(NC1CCN(c2cc(-c3ccc(Cl)cc3)[nH]n2)C1)c1ccccc1Br (centres undefined)	787 s
Cc1ccc2c(Nc3cccc(Cl)c3)c(C(=O)N3CCSCC3)cnc2n1	654 s
CCCN1CCn2cc(S(=O)(=O)Nc3ccc(F)cc3)cc2C1=O	750 s
